{
  "source": "PubChem BioAssay AID2060504",
  "about": "(Molecular Pharmacology Branch, DTP, NCI, 2025)",
  "system": "636577-100-R-J1-PDC complex spheroid viability",
  "test": "Anticancer human tumor 636577-100-R-J1-PDC patient-derived endometrial adenocarcinoma cell line growth inhibition [GQUAD]",
  "settings": "for viability, T/C: stronger effect = lower value",
  "from_the_text": "DNA G-quadruplex Stabilizer Agents in Combinations in Complex Spheroids\nA high-throughput screen of multi-cell type tumor spheroids was designed to identify active combinations of DNA G-quadruplex stabilizer agents and targeted small molecules. Complex spheroids include a stromal component modeled by human endothelial cells (HUVEC) and fibroblasts modeled by human mesenchymal stem cells (MSCs). The concentration ranges selected for each drug and investigational agent were based upon clinically achievable concentrations if the clinical Cmax of the agent was known.\nCompounds. The drugs and investigational agents: pidnarulex (CX-5461; NSC782164), APTO-253 (NSC789042), BRACO-19 (NSC847499), peposertib (NSC802822), ceralasertib (NSC780249), elimusertib (NSC800525), camonsertib (NSC841442), AZD-1390 (NSC803789), olaparib (NSC753686), talazoparib (NSC767125), ART-558 (NSC835418), sotorasib (NSC818433), MRTX-1133 (NSC836407), SN-38 (NSC673596), topotecan (NSC609699), etoposide (NSC141540), doxorubicin (NSC123127), gemcitabine (NSC613327), 5-fluorouracil (NSC19893), paclitaxel (NSC125973), vemurafenib (NSC761431), panobinostat (NSC761190), R-306465 (JNJ-16241199; NSC773264), adavosertib (NSC754352), TP-3654 (NSC805149), carboplatin (NSC241240), KSQ-4279 (NSC840948), and staurosporine (NSC755774) were obtained from the National Cancer Institute (NCI) Developmental Therapeutics Program Chemical Repository (34). The FDA-approved anticancer drug set is available from the NCI Developmental Therapeutics Program. […] The stock solutions were prepared in dimethyl sulfoxide (DMSO, Sigma-Aldrich, St. Louis, MO, cat. D2650) at 800-fold the tested concentration and stored at -70 degrees C prior to their use. All drugs and investigational agents were tested over a range starting from a high concentration at or near the clinical Cmax and decreasing in half-log increments. If the clinical Cmax for an agent had not been determined, the highest concentration tested was 10 microM.\n2.3 Cell Culture. All cells were maintained in an incubator at 37 degrees C and 5% CO2 with 95% humidity. The PDC lines were cultured according to standard operating procedures established by the NCI PDMR. All PDCs were thawed and cultured in Matrigel-coated flasks prepared with a working solution of 1X Ham's F-12 nutrient mix, without supplementation (Invitrogen, cat. 11765054), 100 U/mL penicillin-streptomycin (Invitrogen, cat. 15140122), and 2.5% Matrigel (Corning Inc., cat. 354248) for the first three passages. The 857933-349-R-J2-PDC line was cultured in 6C/Colon 1B media, which includes advanced DMEM/F-12 (Thermo Fisher Scientific, cat. 12634028), 10 mM HEPES (Thermo Fisher Scientific, cat. 15630080), 1X GlutaMAX supplement (Thermo Fisher Scientific, cat. 35050061), 0.1 mg/mL primocin (InvivoGen, cat. ant-pm-2), 10% defined fetal bovine serum, heat inactivated (HyClone Laboratories Inc., cat. SH30070.03HI), 50% L-WRN conditioned media (ATCC, cat. CRL-3276), 1.25 mM N-Acetyl-L-cysteine (Sigma-Aldrich, cat. A9165), 10 mM nicotinamide (Sigma-Aldrich, cat. N0636), 1X B-27 supplement (Thermo Fisher Scientific, cat. 17504044), 1X N-2 supplement (Thermo Fisher Scientific, cat. 17502048), 10 microM Y-27632 dihydrochloride (Tocris Bioscience, cat. 1254), and 50 ng/mL human EGF recombinant protein (Thermo Fisher Scientific, cat. PHG0311). The 485176-168-R4-J1-PDC line was cultured in Panc media, which includes all 6C/Colon 1B media components plus 100 ng/mL human FGF-10 (Thermo Fisher Scientific, cat. 100-26), 500 nM SB-431542 (Selleckchem, cat. S1067), and gastrin (Tocris, cat. 3006).\n[…]",
  "note": "pIC50: −log10 of the molar value. Where “and” joins values, the source holds several entries; their conditions need not be identical. Identical values can stand only once.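 Further: viability read after seven days of drug exposure.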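 Wherever viability, T/C is given: luminescence signal used as a proxy for viable cells; 100% = DMSO vehicle control wells.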",
  "data": [
    {"smiles": "CCc1c2c(nc3ccc(O)cc13)-c1cc3c(c(=O)n1C2)COC(=O)[C@]3(O)CC", "note": "+ CN(C)c1ccc(Nc2c3ccc(NC(=O)CCN4CCCC4)cc3nc3cc(NC(=O)CCN4CCCC4)ccc23)cc1", "values": [
      {"measurement": "pIC50", "setting": "curve of first compound, second compound 0.0316 µM", "result": "> 9.00"},
      {"measurement": "pIC50", "setting": "curve of first compound, second compound 0.1 µM", "result": "> 9.00"},
      {"measurement": "pIC50", "setting": "curve of first compound, second compound 0.316 µM", "result": "> 9.00"},
      {"measurement": "pIC50", "setting": "curve of first compound, second compound 1 µM", "result": "> 9.00"},
      {"measurement": "pIC50", "setting": "curve of first compound, second compound 3.16 µM", "result": "> 9.00"},
      {"measurement": "pIC50", "setting": "curve of first compound, second compound 10 µM", "result": "> 9.00"},
      {"measurement": "viability, T/C", "setting": "second compound 0.0316 µM, first compound 0.000999 µM", "result": 46.8, "unit": "%"},
      {"measurement": "viability, T/C", "setting": "second compound 0.0316 µM, first compound 0.00316 µM", "result": 23.4, "unit": "%"},
      {"measurement": "viability, T/C", "setting": "second compound 0.0316 µM, first compound 0.00999 µM", "result": 26, "unit": "%"},
      {"measurement": "viability, T/C", "setting": "second compound 0.0316 µM, first compound 0.0316 µM", "result": 16.6, "unit": "%"},
      {"measurement": "viability, T/C", "setting": "second compound 0.0316 µM, first compound 0.0999 µM", "result": 17.7, "unit": "%"},
      {"measurement": "viability, T/C", "setting": "second compound 0.0316 µM, first compound 0.316 µM", "result": 12.4, "unit": "%"},
      {"measurement": "viability, T/C", "setting": "second compound 0.1 µM, first compound 0.000999 µM", "result": 43.7, "unit": "%"},
      {"measurement": "viability, T/C", "setting": "second compound 0.1 µM, first compound 0.00316 µM", "result": 21.6, "unit": "%"},
      {"measurement": "viability, T/C", "setting": "second compound 0.1 µM, first compound 0.00999 µM", "result": 22.2, "unit": "%"},
      {"measurement": "viability, T/C", "setting": "second compound 0.1 µM, first compound 0.0316 µM", "result": 18.1, "unit": "%"},
      {"measurement": "viability, T/C", "setting": "second compound 0.1 µM, first compound 0.0999 µM", "result": 17, "unit": "%"},
      {"measurement": "viability, T/C", "setting": "second compound 0.1 µM, first compound 0.316 µM", "result": 12.9, "unit": "%"},
      {"measurement": "viability, T/C", "setting": "second compound 0.316 µM, first compound 0.000999 µM", "result": 41.9, "unit": "%"},
      {"measurement": "viability, T/C", "setting": "second compound 0.316 µM, first compound 0.00316 µM", "result": 23.1, "unit": "%"},
      {"measurement": "viability, T/C", "setting": "second compound 0.316 µM, first compound 0.00999 µM", "result": 20.3, "unit": "%"},
      {"measurement": "viability, T/C", "setting": "second compound 0.316 µM, first compound 0.0316 µM", "result": 21.1, "unit": "%"},
      {"measurement": "viability, T/C", "setting": "second compound 0.316 µM, first compound 0.0999 µM", "result": 19.2, "unit": "%"},
      {"measurement": "viability, T/C", "setting": "second compound 0.316 µM, first compound 0.316 µM", "result": 13.2, "unit": "%"},
      {"measurement": "viability, T/C", "setting": "second compound 1 µM, first compound 0.000999 µM", "result": 39.4, "unit": "%"},
      {"measurement": "viability, T/C", "setting": "second compound 1 µM, first compound 0.00316 µM", "result": 21.4, "unit": "%"},
      {"measurement": "viability, T/C", "setting": "second compound 1 µM, first compound 0.00999 µM", "result": 24.2, "unit": "%"},
      {"measurement": "viability, T/C", "setting": "second compound 1 µM, first compound 0.0316 µM", "result": 22.6, "unit": "%"},
      {"measurement": "viability, T/C", "setting": "second compound 1 µM, first compound 0.0999 µM", "result": 19.4, "unit": "%"},
      {"measurement": "viability, T/C", "setting": "second compound 1 µM, first compound 0.316 µM", "result": 13.4, "unit": "%"},
      {"measurement": "viability, T/C", "setting": "second compound 3.16 µM, first compound 0.000999 µM", "result": 29.8, "unit": "%"},
      {"measurement": "viability, T/C", "setting": "second compound 3.16 µM, first compound 0.00316 µM", "result": 22, "unit": "%"},
      {"measurement": "viability, T/C", "setting": "second compound 3.16 µM, first compound 0.00999 µM", "result": 19.5, "unit": "%"},
      {"measurement": "viability, T/C", "setting": "second compound 3.16 µM, first compound 0.0316 µM", "result": 18.4, "unit": "%"},
      {"measurement": "viability, T/C", "setting": "second compound 3.16 µM, first compound 0.0999 µM", "result": 16.8, "unit": "%"},
      {"measurement": "viability, T/C", "setting": "second compound 3.16 µM, first compound 0.316 µM", "result": 9.28, "unit": "%"},
      {"measurement": "viability, T/C", "setting": "second compound 10 µM, first compound 0.000999 µM", "result": 4.84, "unit": "%"},
      {"measurement": "viability, T/C", "setting": "second compound 10 µM, first compound 0.00316 µM", "result": 4.42, "unit": "%"},
      {"measurement": "viability, T/C", "setting": "second compound 10 µM, first compound 0.00999 µM", "result": 4.45, "unit": "%"},
      {"measurement": "viability, T/C", "setting": "second compound 10 µM, first compound 0.0316 µM", "result": 4.23, "unit": "%"},
      {"measurement": "viability, T/C", "setting": "second compound 10 µM, first compound 0.0999 µM", "result": 4.1, "unit": "%"},
      {"measurement": "viability, T/C", "setting": "second compound 10 µM, first compound 0.316 µM", "result": 2.29, "unit": "%"}
    ]},
    {"smiles": "Nc1ccn(C2OC(CO)C(O)C2(F)F)c(=O)n1", "note": "(centres undefined)", "values": [
      {"measurement": "viability, T/C", "setting": "compound 0.0316 µM", "result": "15% and 15.2%"},
      {"measurement": "viability, T/C", "setting": "compound 0.1 µM", "result": "14.2% and 11.3%"},
      {"measurement": "viability, T/C", "setting": "compound 0.316 µM", "result": "17.7% and 13.5%"},
      {"measurement": "viability, T/C", "setting": "compound 1 µM", "result": "16.3% and 13.1%"},
      {"measurement": "viability, T/C", "setting": "compound 3.16 µM", "result": "13.8% and 14.3%"},
      {"measurement": "viability, T/C", "setting": "compound 10 µM", "result": "14.2% and 11%"},
      {"measurement": "pIC50", "setting": "curve of compound", "result": "> 7.50"}
    ]}
  ]
}
